Read-outs that look alike come from different tables or passages of the source.

The target of experiment [1] is T1, human RIP1 (Homo sapiens, UniProt Q13546).
T1 construct: made in house; host or cells: Sf-9 insect cells
T1 sequence (Q13546 1-671): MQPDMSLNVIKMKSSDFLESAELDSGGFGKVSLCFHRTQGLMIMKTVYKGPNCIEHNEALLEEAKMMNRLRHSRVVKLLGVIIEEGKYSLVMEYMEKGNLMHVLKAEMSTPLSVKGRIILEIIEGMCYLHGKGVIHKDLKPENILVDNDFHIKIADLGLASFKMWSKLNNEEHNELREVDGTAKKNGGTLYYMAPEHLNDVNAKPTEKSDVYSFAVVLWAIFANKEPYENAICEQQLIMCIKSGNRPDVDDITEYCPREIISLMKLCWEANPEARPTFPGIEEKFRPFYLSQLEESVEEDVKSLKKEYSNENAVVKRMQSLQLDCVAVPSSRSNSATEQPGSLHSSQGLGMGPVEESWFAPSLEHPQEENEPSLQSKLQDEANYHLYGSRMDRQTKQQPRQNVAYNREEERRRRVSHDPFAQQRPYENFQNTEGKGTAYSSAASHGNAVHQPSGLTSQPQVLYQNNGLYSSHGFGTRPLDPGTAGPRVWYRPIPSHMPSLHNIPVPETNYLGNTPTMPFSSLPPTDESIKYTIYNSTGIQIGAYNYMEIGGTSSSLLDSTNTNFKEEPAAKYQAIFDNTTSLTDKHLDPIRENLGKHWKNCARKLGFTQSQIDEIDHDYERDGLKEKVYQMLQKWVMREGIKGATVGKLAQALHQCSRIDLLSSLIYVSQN
Kind of experiment: Inhibition of ADP-Glo RIP1 kinase activity. It counts as biochemical. The method, then:
The human RIP1 gene was transduced into Sf-9 insect cells, and the RIP1 protein was purified by Ni+ affinity chromatography and then by S-200 molecular sieve to remove the protein multimers. The obtained RIP1 protein was stored at −70° C., and the activity of the RIP1 protein in catalyzing autophosphorylation was detected by the ADP-Glo™ Kinase Activity Assay Kit (Promega) and the inhibitory activity of the drug against the RIP1 kinase was determined.
100 nL of the compound was transferred to a 384-well assay plate. Two replicate wells were set for each concentration of each drug.
The RIP1 enzyme solution and ATP solution were formulated in an assay buffer (containing 50 mM HEPES pH 7.5, 30 mM MgCl2, 50 mM NaCl, 1 mM DTT, 0.02% CHAPS, and 0.5 mg/ml BSA). Then, 5 μL of the RIP1 enzyme solution (final concentration 50 nM) was added to the assay plate and incubated at room temperature for 1 h. 5 μL of the ATP solution (final concentration 10 μM) was added to the assay plate, and incubate at room temperature for 4 h. Then 5 μL of ADP-Glo reagent was added to the assay plate, and incubated at room temperature for 60 min. 5 μL of a kinase assay solution was added to the assay plate, and incubated at room temperature for 30 min. After readout on Envision, the inhibition rate in each well was calculated from the full-activity well and the background well, and the Ki of the compound was calculated by GraphPad Prism 7 software (using the Morrision equation to fit the curve and calculate the Ki).
For orientation: ADP-Glo turns the ADP formed in a reaction into a luminescent signal.

In experiment [2] the test system is Jurkat (FADD−/−) cells. Kind of experiment: Inhibition of TNF-induced programmed Jurkat (FADD−/−) cell necrosis (Cell Titer-Glo). Format: cell-based, human. The note with it: 20 h, read-out: Cellular IC50 (M) Jurkat (FADD−/−). The method, then: Two replicate wells were set for each concentration of each compound.
Jurkat (FADD^−/−) cells (human-derived peripheral blood leukemia T cell line, with FADD gene knocked out) were cultured in vitro. After growing to logarithmic growth phase, the cells were harvested, and centrifuged at 1000 rpm for 5 min. The supernatant was discarded, and the cells were resuspended in fresh medium and adjusted to a cell density of 5×10^5/mL. The cell suspension was added to the culture plate containing the drug (40 μL per well). In the treatment groups, 10 μL of TNF (tumor necrosis factor, final concentration 10 ng/mL) diluted with the cell culture medium was added to each well, and incubated for 20 h in a cell incubator (37° C., 5% CO2). Subsequently, 50 μL of Cell Titer-Glo solution was added to each well and incubated at room temperature for 10 min. Then, the luminescence was detected on BioTek plate reader to measure the intracellular ATP level. The effect of the test compounds in inhibiting TNF-induced cell necrosis was calculated from the full-activity well and background well (with the untreated DMSO control well as 100% cell viability), and the half inhibitory concentration (IC50) of the compound was calculated by Graphpad Prism statistical software.
Background: ATP-based viability assays read luminescence as a measure of living cells.

[3] abbreviates: Homo sapiens, Jurkat, TNF 10 ng/mL, intracellular ATP level.

Take `Cc1nc2cc3c(cc2[nH]1)OC[C@@H](NC(=O)c1cncn1Cc1ccccc1)C(=O)N3C` (stereo in doubt) [RIP1-069]: the inhibition constant Ki (as a rule, the dissociation constant of the complex between target and ligand, obtained from inhibition or displacement) in experiment [1] is 31.3 nM. Besides, the IC50 in experiment [2] (setting [3]) turned out to be 4.52e-09 M.
The like results for `CN1C(=O)[C@@H](NC(=O)c2cc(Cc3ccccc3)on2)COc2cc3[nH]ncc3cc21` [RIP1-021] were, in that order, 10.3 nM and 5.8e-10 M.
Turning to `CN1C(=O)[C@@H](NC(=O)c2cn(Cc3ccccc3)cn2)COc2cc3[nH]nc(Cl)c3cc21` [RIP1-031], the inhibition constant Ki in experiment [1] is 0.66 nM. Besides, in experiment [2] (setting [3]), the IC50 was 2.9e-10 M.
Regarding `CN1C(=O)[C@@H](NC(=O)c2ncn(Cc3ccccc3)n2)COc2cc3[nH]nc(Cl)c3cc21` [RIP1-032], the affinity in experiment [1] corresponds to a Ki of 20.3 nM. Also, the IC50 in experiment [2] (Homo sapiens, Jurkat) was 2.4e-10 M.
`CN1C(=O)[C@@H](NC(=O)c2cc(Cc3ccccc3)on2)COc2cc3[nH]nc(Cl)c3cc21` [RIP1-033]: in experiment [1], affinity was put at a Ki of 10.8 nM. For the same compound, the IC50 in experiment [2] (setting [3]) came to 6.8e-10 M.
The like results for `CN1C(=O)[C@@H](NC(=O)c2cn(Cc3ccccc3)nn2)COc2cc3[nH]nc(Cl)c3cc21` [RIP1-035] were, in that order, 7.8 nM and 1.94e-09 M.
For `Cc1nc2cc3c(cc2[nH]1)OC[C@H](NC(=O)c1cc(Cc2ccccc2)on1)C(=O)N3C` [RIP1-061], in that order: 44 nM and 5.86e-09 M.
As to `Cc1nc2cc3c(cc2[nH]1)OC[C@H](NC(=O)c1cn(Cc2ccccc2)cn1)C(=O)N3C` [RIP1-067], in experiment [1], affinity was put at a Ki of 28.6 nM. In addition, in experiment [2] (Homo sapiens, Jurkat), the IC50 is 6.72e-09 M.
`Cc1nc2cc3c(cc2[nH]1)OC[C@H](NC(=O)c1ncn(Cc2ccccc2)n1)C(=O)N3C` [RIP1-068] displayed a Ki in experiment [1] of 42.8 nM. In experiment [2] (setting [3]), the IC50 is 7.62e-09 M.
With `CN1C(=O)[C@@H](NC(=O)c2nnc(Cc3ccccc3)[nH]2)COc2ccc3ncccc3c21` [RIP1-097], the Ki in experiment [1] stood at 23.2 nM. Besides, the IC50 turned out to be 1.2e-09 M in experiment [2] (setting [3]) and 2.28e-09 M in experiment [2] (TNF 10 ng/mL, intracellular ATP level).
In turn, `CN1C(=O)[C@@H](NC(=O)c2ncn(Cc3ccccc3)n2)COc2ccc3ncccc3c21` [RIP1-098] had a Ki in experiment [1] of 20.9 nM. For the same compound, the IC50 in experiment [2] (setting [3]) was determined as 7.25e-10 M.
In experiment [1], `CN1C(=O)[C@@H](NC(=O)c2cn(Cc3ccccc3)cn2)COc2ccc3ncccc3c21` [RIP1-099] returned a Ki of 37.7 nM. For the same compound, in experiment [2] (setting [3]), the IC50 was found to be 6.92e-09 M.
On to `CN1C(=O)[C@@H](NC(=O)c2cn(Cc3ccccc3)nn2)COc2ccc3ncccc3c21` [RIP1-100], for which, in experiment [1], the Ki was determined as 20.4 nM. Moreover, in experiment [2] (setting [3]), the IC50 amounted to 3.27e-08 M.
For the compound `CN1C(=O)[C@@H](NC(=O)c2cc(Cc3ccccc3)on2)COc2ccc3ncccc3c21` [RIP1-101], the Ki in experiment [1] worked out at 17.2 nM. Moreover, the IC50 in experiment [2] (setting [3]) amounted to 5.5e-09 M.
As to `CN1C(=O)[C@@H](NC(=O)c2nnc(Cc3ccccc3)[nH]2)COc2ccc3cnccc3c21` [RIP1-107], the Ki in experiment [1] is 8.9 nM. Moreover, the IC50 in experiment [2] (Homo sapiens, Jurkat) was 1.07e-09 M.
As for `CN1C(=O)[C@@H](NC(=O)c2cc(Oc3ccccc3)ccn2)COc2cc3[nH]ncc3cc21` [RIP1-190], in experiment [2] (setting [3]), the IC50 turned out to be 1.44e-10 M.
Same read-out and setting: the figure for `CN1C(=O)[C@@H](NC(=O)c2cncc(Oc3ccccc3)c2)COc2ccc3ncccc3c21` [RIP1-193] is 2.95e-07 M; for `CN1C(=O)[C@@H](NC(=O)c2cccc(Oc3ccccc3)n2)COc2ccc3ncccc3c21` [RIP1-194] it is 7.28e-06 M.
On the same count and under the same terms, the figure for `CN1C(=O)[C@@H](NC(=O)c2ccnc(Oc3ccccc3)c2)COc2ccc3ncccc3c21` [RIP1-195] is 5.66e-06 M.
For the compound `CN1C(=O)[C@@H](NC(=O)c2ccc(Oc3ccccc3)cn2)COc2ccc3ncccc3c21` [RIP1-196], the IC50 in experiment [2] (setting [3]) is > 2e-05 M.
Still for that read-out and setting: the figure for `CN1C(=O)[C@@H](NC(=O)c2cc(Oc3ccc(F)cc3)ccn2)COc2ccc3ncccc3c21` [RIP1-197] is 2.92e-08 M; for `CN1C(=O)[C@@H](NC(=O)c2cc(Oc3c(F)cccc3F)ccn2)COc2ccc3ncccc3c21` [RIP1-198] it is 4.57e-09 M.
On the same count and under the same terms, the figure for `CN1C(=O)[C@@H](NC(=O)c2ccnc(Oc3ccccc3)n2)COc2ccc3ncccc3c21` [RIP1-199] is 4.76e-05 M; for `CN1C(=O)[C@@H](NC(=O)c2cc(Nc3ccccc3)ccn2)COc2ccc3ncccc3c21` [RIP1-200] it is 8.18e-08 M; for `CN1C(=O)[C@@H](NC(=O)c2ccc(Nc3ccccc3)cn2)COc2ccc3ncccc3c21` [RIP1-201] it is > 2e-05 M.
The same measure, in the same setting: the figure for `CN1C(=O)[C@@H](NC(=O)c2ccnc(Nc3ccccc3)n2)COc2ccc3ncccc3c21` [RIP1-202] is > 2e-05 M.
In the case of `CN1C(=O)[C@@H](NC(=O)c2cc(Oc3ccccc3F)ccn2)COc2ccc3ncccc3c21` [RIP1-203], the IC50 in experiment [2] (setting [3]) is 2.33e-09 M.
The same measure, in the same setting: the figure for `CN1C(=O)[C@@H](NC(=O)c2cc(Oc3cccc(F)c3)ccn2)COc2ccc3ncccc3c21` [RIP1-204] is 3.04e-09 M; for `CN1C(=O)[C@@H](NC(=O)c2cc(Oc3cc(F)cc(F)c3)ccn2)COc2ccc3ncccc3c21` [RIP1-205] it is 7.11e-09 M.
Consider `CN1C(=O)[C@@H](NC(=O)c2n[nH]c(Cc3ccccc3F)n2)COc2cc3ncoc3cc21` [RIP1-206], for which, in experiment [2] (setting [3]), the IC50 came to 8.18e-10 M.
Same read-out and setting: the figure for `CN1C(=O)[C@@H](NC(=O)c2n[nH]c(Cc3ccc(F)cc3)n2)COc2cc3nccnc3cc21` [RIP1-207] is 4.88e-09 M; for `CN1C(=O)[C@@H](NC(=O)c2n[nH]c(Cc3ccccc3F)n2)COc2cc3nccnc3cc21` [RIP1-208] it is 1.49e-09 M.
Same read-out and setting: the figure for `CN1C(=O)[C@@H](NC(=O)c2n[nH]c(Cc3cccc(F)c3)n2)COc2cc3nccnc3cc21` [RIP1-209] is 1.92e-09 M.
Still for that read-out and setting: the figure for `CN1C(=O)[C@@H](NC(=O)c2cc(Oc3cccnc3)ccn2)COc2ccc3ncccc3c21` [RIP1-210] is 7.8e-09 M; for `CN1C(=O)[C@@H](NC(=O)c2nnc(Oc3ccccc3)[nH]2)COc2cc3ncoc3cc21` [RIP1-211] it is 2.72e-07 M; for `CN1C(=O)[C@@H](NC(=O)c2cc(Oc3cccnc3)ccn2)COc2cc3ncoc3cc21` [RIP1-212] it is 1.81e-08 M.
On to `CN1C(=O)[C@@H](NC(=O)c2nccc(Oc3ccccc3)n2)COc2cc3ncoc3cc21` [RIP1-213], for which the IC50 in experiment [2] (setting [3]) came to 7.68e-08 M.
Same read-out and setting: the figure for `CN1C(=O)[C@@H](NC(=O)c2cc(Oc3cccnc3)ccn2)COc2cc3nccnc3cc21` [RIP1-214] is 2.41e-08 M; for `CN1C(=O)[C@@H](NC(=O)c2nccc(Oc3ccccc3)n2)COc2cc3nccnc3cc21` [RIP1-215] it is 3.45e-07 M.
Still for that read-out and setting: the figure for `CN1C(=O)[C@@H](NC(=O)c2nnc(Cc3cccc(F)c3)[nH]2)COc2cc3ocnc3cc21` [RIP1-217] is 1.38e-09 M; for `CN1C(=O)[C@@H](NC(=O)c2nnc(Cc3ccccc3)[nH]2)COc2cc3ocnc3cc21` [RIP1-218] it is 1.24e-09 M.
Consider `CN1C(=O)[C@@H](NC(=O)c2nnc(Cc3ccccc3F)[nH]2)COc2cc3ocnc3cc21` [RIP1-219], for which, in experiment [2] (setting [3]), the IC50 was determined as 6.75e-10 M.
`CN1C(=O)[C@@H](NC(=O)c2nc(Cc3ccccc3)n(C)n2)COc2cc3ncoc3cc21` [RIP1-220]: the IC50 in experiment [2] (setting [3]) was > 2e-05 M.
The same measure, in the same setting: the figure for `CN1C(=O)[C@@H](NC(=O)c2cc(Cc3ccccc3)ccn2)COc2cc3ncoc3cc21` [RIP1-221] is 7.31e-09 M; for `CN1C(=O)[C@@H](NC(=O)c2n[nH]c(Cc3cccc(F)c3)n2)COc2cc3ncoc3cc21` [RIP1-222] it is 5.62e-09 M.
